# Test results taken from patent publication US10322037B2, “Absorbent article” (UNICHARM CORPORATION, priority 2012, dated 2019).
# From the text: As used herein, the term “solubility” in regard to water solubility includes cases where the sample completely dissolves in deionized water to form a homogeneous mixture, and cases where the sample is completely emulsified. As used herein, “completely” means that no mass of the sample remains in the deionized water.
row,Water solubility,SMILES
1,<0.05 g,CCCCCCCCCCCCOC(=O)CCCCCCCCCCC [2-18]
2,<0.05 g,CCCCCCCCCCCCCC(=O)OCCCCCCCCCCCC [2-19]
